This passage reports Ki and IC50 results from PMC9952331, “Ethyl Gallate Isolated from Castanopsis cuspidata var. sieboldii Branches Inhibits Melanogenesis and Promotes Autophagy in B16F10 Cells” (Antioxidants, 2023).

The structures appear in SMILES notation. Values after ≈ are worked out from the molar mass of the structure shown.

In assay [1] the target is mushroom tyrosinase. The assay can be described thus: enzyme kinetics with L-DOPA substrate, Lineweaver-Burk plot; IC50 […] also reported. Format: biochemical.
For assay [2], the system named is mushroom tyrosinase. Nature of the assay: cell-free tyrosinase inhibition assay with L-tyrosine substrate, absorbance at […] nm. In kind it is biochemical.

What is called Ki is the dissociation constant of the complex between target and ligand, obtained from inhibition or displacement. Read a high Ki as lower affinity. In turn, `CCOC(=O)c1cc(O)c(O)c(O)c1` [Compound 1, ethyl gallate] registered a Ki at mushroom tyrosinase [1] of 434 µM.

Usually IC50 stands for the concentration needed to halve the response being measured. The low end stands for greater potency in that assay, the high end for weaker potency in that assay. For the compound `O=C1O[C@H]([C@@H](O)CO)C(O)=C1O` [ascorbic acid], the IC50 in the assay with mushroom tyrosinase [2] amounted to 30.99 ± 0.86 µg/mL (≈ 176 µM).
